Entries after “also recorded” stand apart in the source; their conditions may differ. One block for each compound: values may come before it.
How the values were obtained:
[1] = test system: HepG2 (human hepatoblastoma cells); experiment: RESV metabolism in cell culture (LC-MS), HepG2; conditions: HepG2, 20 or 200 µM RESV, 4 h
Description: (§1) Cells were maintained in Dulbecco’s Modified Eagle Medium (DMEM) with 1% penicillin/streptomycin and 2 mM L-glutamine with some modifications as follows; DMEM (1.0 g/L glucose) with 10% fetal calf serum (FCS) for HepG2; DMEM (4.5 g/L glucose) with 10% FCS for HaCaT; DMEM (4.5 g/L glucose) with 20% FCS for C2C12. C2C12 cells were differentiated into myotubes by switching medium into DMEM containing 2% horse serum. Cells were plated on a 10 cm dish and allowed to adhere for 18 h. […] After 4 h incubation, cells were washed with PBS twice, followed by addition of 2 mL 50% ice-cold methanol. Collected cells were transferred into tubes on ice and further processed as described in metabolome sample preparation section.
(§2) After addition of internal standards (10 nmol HEPES and PIPES) to metabolome samples and brief vortexing, samples were transferred to Amicon Ultra 10 kDa cut-off filters (Millipore, Billerica, MA, USA) to remove proteins. […]
(§3) LC-MS data were obtained using a Paradigm MS4 HPLC system (Michrom Bioresources, Auburn, CA, USA) coupled to an LTQ Orbitrap mass spectrometer (Thermo Fisher Scientific, Waltham, MA, USA), as described previously [38]. […] Peak areas of metabolites of interest were measured using the MZmine 2.10 software [39] and normalized using the peak areas of HEPES and PIPES, as described in S2 Table.

C2C12 (mouse myoblasts) = experiment: RESV metabolism in cell culture (LC-MS), C2C12; conditions: C2C12, 20 or 200 µM RESV, 4 h
Description: as §1, §2, §3

[2] = test system: HaCaT (human keratinocytes); experiment: RESV metabolism in cell culture (LC-MS), HaCaT; conditions: 20 or 200 µM RESV, 4 h
Description: as §1, §2, §3

[3] = Distribution of RESV metabolites in mouse tissues after oral and dermal administration (LC-MS); assay type: in vivo, mouse; conditions: for Tissue distribution of metabolite: hairless mice, 4 h after 1 mg RESV, both oral and skin administration
Description: Mice were separated from each other and could not lick RESV from their dorsal skin.
Mice were anesthetized with pentobarbital and blood was collected from the right ventricle. For metabolite extraction 0.2 mL of blood were mixed with 1.8 mL 55% methanol, pre-chilled to −40°C and kept until further processing as described in the metabolome sample preparation section. In addition to blood, metabolome samples were prepared from liver, dorsal skin, leg skin, and hind limb muscle.
Around 100 mg of each mouse tissue was dissected and weighed. Tissues were minced and homogenized for 3 min in 500 µL 50% methanol on ice using a BioMasher II (Nippi, Tokyo, Japan). Next, 1 mL 50% methanol and internal standards (10 nmol 4-(2-hydroxyethyl)-1-piperazineethanesulfonic acid (HEPES) and piperazine-N,N’-bis(2-ethanesulfonic acid) (PIPES)) were added to the samples. HEPES and PIPES were used as internal standards to correct for the variation of sample preparation and different detection efficiency. After brief vortexing, samples were centrifuged at 500 g for 10 min at 4°C. Supernatant was recovered for further processing as described in the metabolome sample preparation section (without the repeated addition of internal standards and vortexing).
Metabolome sample preparation was previously described.
Peaks were assigned to metabolites based upon their retention times and m/z values. Compounds were confirmed with standards (STD) or with analysis of MS/MS spectra (MS/MS), if no standard was available. In cases where no standard compound or MS/MS spectrum was available, compounds were identified by generating chemical formulae using m/z values in MZmine 2.10 module and given MS status. Data were analyzed using the scatter plot function built into MZmine 2.10 software, as well as by exporting the data to a spreadsheet.

TPA-induced ear edema = experiment: TPA-induced ear edema; assay type: in vivo, mouse; conditions: for Ear thickness: 24 h after 1 µg TPA, before TPA 0.22 mm, TPA control 0.30 mm, female C57BL/6 mice
Description: The ear edema model was employed as previously described. Briefly, 1 µg 12-O-Tetradecanoylphorbol-13-acetate (TPA) was applied to the right ear of female C57BL/6 mice. Edema was evaluated by measuring ear thickness and ear weight. […] Ear thickness was measured with a micrometer before and 24 h after TPA treatment. After sacrificing mice with CO2, ear punch biopsies (6 mm diameter) were weighed.

[4] = RESV-treated mouse samples, LC-MS negative ionization mode

- Detection of metabolite (normalized peak area) in cells treated with RESV [1]: detected
- Detection of metabolite (normalized peak area) in cells treated with RESV (C2C12 (mouse myoblasts)): detected
- Detection of metabolite (normalized peak area) in cells treated with RESV [2]: detected
Compound: O=C(O)[C@H]1O[C@@H](Oc2cc(O)cc(/C=C\c3ccc(O)cc3)c2)[C@H](O)[C@@H](O)[C@@H]1O (relative stereo) [cis-RESV-3-O-GLUC, cis-Resveratrol-3-O-glucuronide]

- Detection of metabolite in mouse and cell culture samples ([3]; mouse, in vivo): barely detected
Compound: O=C(O)[C@H]1O[C@@H](Oc2ccc(/C=C\c3cc(O)cc(O)c3)cc2)[C@H](O)[C@@H](O)[C@@H]1O (relative stereo) [cis-RESV-4-O-glucuronide, cis-resveratrol-4-O-glucuronide]

- Detection of metabolite (normalized peak area) in cells treated with RESV [1]: detected
- Detection of metabolite (normalized peak area) in cells treated with RESV (C2C12 (mouse myoblasts)): detected
- Detection of metabolite (normalized peak area) in cells treated with RESV [2]: detected
Compound: O=C(O)[C@H]1O[C@@H](Oc2cc(O)cc(/C=C/c3ccc(O)cc3)c2)[C@H](O)[C@@H](O)[C@@H]1O (relative stereo) [trans-RESV-3-O-GLUC, trans-resveratrol-3-O-glucuronide]

- Detection of metabolite in mouse and cell culture samples ([3]; mouse, in vivo): barely detected
Compound: O=C(O)[C@H]1O[C@@H](Oc2ccc(/C=C/c3cc(O)cc(O)c3)cc2)[C@H](O)[C@@H](O)[C@@H]1O (relative stereo) [trans-RESV-4-O-glucuronide, trans-resveratrol-4-O-glucuronide]

Compound: Oc1ccc(/C=C/c2cc(O)cc(O)c2)cc1 [RESV, trans-resveratrol]
- Ear weight (TPA-induced ear edema; 6 mm ear punch 24 h after TPA, 1 mg RESV oral, TPA-treated mice 9.4 mg): 8.1 mg
- Ear thickness (TPA-induced ear edema; 1 mg RESV applied topically to ear 30 min after TPA): 0.21 mm
- Ear thickness (TPA-induced ear edema; 1 mg RESV orally 30 min after TPA): 0.26 mm

Compound: Dihydroresveratrol- glucuronide [DH-RESV-GLUC]
- Tissue distribution of metabolite [3]: detected in blood and liver as well as at lower levels in skin and muscle

Compound: Dihydroresveratrol- sulfoglucuronide [DH-RESV-SULF-GLUC]
- Reports and comments: samples in which the metabolite was detected [3, 4]: Detected in mouse liver samples

Compound: Dihydroresveratrol-sulfate [DH-RESV-SULF]
- Tissue distribution of metabolite [3]: detected mainly in liver and blood; also recorded: barely detectable in dorsal and leg skin, and muscle

- Reports and comments: samples in which the metabolite was detected ([3]; mouse, in vivo): Detected in mouse skin samples
Compound: Resveratrol-diglucuronide [RESV-DIGLUC]

Compound: Resveratrol-disulfate [RESV-DISULF]
- Reports and comments: samples in which the metabolite was detected [3, 4]: Detected in mouse blood and liver samples

Compound: Resveratrol-sulfoglucuronide [RESV-SULF-GLUC]
- Reports and comments: samples in which the metabolite was detected ([3]; mouse, in vivo): Azorin-Ortuno et al 2011 [4] (MS/MS data) Detected in blood mouse blood samples
